The source of these data is patent publication US20070122503A1, “USE OF EXTRACTS FROM CIMICIFUGA RACEMOSA AND OF TECTORIGENIN AS AN ESTROGEN-TYPE, ORGANOSELECTIVE MEDICAMENT HAVING NO UTEROTROPHIC EFFECT” (BIONORICA ARZNEIMITTEL GMBH, priority 1998, published 2007).

Common to all, as to assay type: in vivo, rat
Series [1] concerns uterine VEGF gene, CCO gene. Kind of series: Subacute test 7 days s.c. (Belamcanda sinensis): gene expression in uterine mRNA extract. The note with it: after one-week treatment, 10 μg estradiol s.c. daily. The protocol: (§1) All experiments described below were carried out with ovariectomized Sprague-Dawley rats (=ovx rats) having a weight between 240 and 280 g.
The effects of repeated administration of estradiol, Belamcanda sinensis extract and vehicle on overall weight, uterus weight, hormone level and gene activation of uterus and bone were examined on ovariectomized rats after daily s.c. application through seven days.
8 animals each per test group (24 altogether) were daily injected subcutaneously between 8:00 and 9:00 a.m. with 62.5 mg Belamcanda sinensis extract and 10 μg estradiol or the solvent (cremophor 5%, 1 ml), respectively. 6 h after the last application, the animals were decapitated and from every animal the aorta, the uterus and the left femur head were removed, cleaned, and frozen in liquid nitrogen.

For series [2], the system named is collagen-1A1, osteocalcin, IGF1 and TGFβ-mRNA, CCO gene in femur head. Kind of series: Subacute test 7 days s.c. (Belamcanda sinensis): mRNA expression in extracts of the femur head. The note with it: 7 days daily s.c.
Protocol: In extracts of the femur head, the collagen-1A1, osteocalcin, IGF1 and TGFβ-mRNA expression was determined.
In series [3] the test system is mRNA for the estrogen receptor. Kind of series: Repeated administration of Cimicifuga racemosa: mRNA expression in preoptic region of the hypothalamus (RT-PCR). The following applies: 7 days s.c.; semi-quantitative RT-PCR.
Protocol: Both substances were dissolved in 5% cremophor, the control animals only received the vehicle.
(§5) Following decapitation of the animals, brains, uterus and femur were prepared for mRNA-recovery. […] The expression of the estrogen-regulated genes in the above identified organs was determined by means of semi-quantitative RT-PCR.
(§6) As another marker for the estrogenic effect, the activation of mRNA of estrogen-inducible proteins was measured. What was measured here was tissue from uterus, from bone tissue (femur) and from the preoptic region of the hypothalamus.
For series [4], the system named is mRNA for collagen 1 and osteocalcin. Kind of series: Repeated administration of Cimicifuga racemosa: mRNA expression in bone (femur) (RT-PCR). The following applies: 7 days s.c., semi-quantitative RT-PCR.
Protocol: (§7) 14 days following ovarectomy at the earliest, the animals have the respective test substance injected subcutaneously in a dose of 62.5 mg Cimicifuga racemosa/rat or 8 pg estradiol/rat once daily in the morning over a period of 7 days. Both substances were dissolved in 5% cremophor, the control animals only received the vehicle.
as §5, §6
The subject of series [5] is ovariectomized Sprague-Dawley rats. The series is described as follows: Repeated s.c. administration of Cimicifuga racemosa over 7 days: uterus weight, vagina, LH. The note with it: 7 days s.c. once daily.
Protocol: as §7
The LH concentration in the blood of the animals was determined by means of RIA.
For series [6] the test system is unchanged. Kind of series: Subacute test, daily s.c. injection through 7 days (Belamcanda sinensis): body weight, uterus weight, serum LH. The note with it: 7 days daily s.c., 62.5 mg extract or 10 μg estradiol.
Protocol: In the blood samples, LH and the estradiol immunoreactivity were determined.
Series [7] shares this test system. Kind of series: Acute experiment, single i.v. injection of Belamcanda sinensis extract: serum LH. The protocol:
All experiments described below were carried out with ovariectomized Sprague-Dawley rats (=ovx rats) having a weight between 240 and 280 g. The onset of the effect of the estradiol-type effect of Belamcanda sinensis extract occurs very quickly. Even after a single i.v. administration of vehicle, estradiol and Belamcanda sinensis extract to ovx rats, pulsatility ceases both under E2 and under Belamcanda sinensis. […] Cremophor is an emulsifier on the basis of polyethoxylated castor oil derivatives. The results are represented in FIG. 2. […] On the day of the experiment, 6 blood samples were taken at 10-min intervals. Immediately following taking of the 6th sample, 62.5 mg of the Belamcanda sinensis extract or 10 μg 17-β-estradiol (E2) or the solvent (5%) cremophor in isotonic NaCl 1 ml), respectively, were injected intravenously, and blood samples were taken for another 2 hours in 10-minute intervals. 6 hours after the intravenous administration, the animals were decapitated, blood was obtained and the uteri removed, weighed and deep-frozen in liquid nitrogen.

Series [8] relates to mRNA for IGF1 and complement factor C3. Kind of series: Repeated administration of Cimicifuga racemosa: mRNA expression in uterus (RT-PCR). The following applies: 7 days s.c.; semi-quantitative RT-PCR.
Protocol: as §7, §5
What was measured here was tissue from uterus, from bone tissue (femur) and from the preoptic region of the hypothalamus.
The test system of series [9] is uterine VEGF, IGF1 and C3 genes, CCO gene. The series is described as follows: Acute experiment, single i.v. injection: uterine gene expression. The note with it: six hours after single i.v. injection; vs controls. The protocol:
All experiments described below were carried out with ovariectomized Sprague-Dawley rats (=ovx rats) having a weight between 240 and 280 g. […] On the day of the experiment, 6 blood samples were taken at 10-min intervals. Immediately following taking of the 6th sample, 62.5 mg of the Belamcanda sinensis extract or 10 μg 17-β-estradiol (E2) or the solvent (5%) cremophor in isotonic NaCl 1 ml), respectively, were injected intravenously, and blood samples were taken for another 2 hours in 10-minute intervals. 6 hours after the intravenous administration, the animals were decapitated, blood was obtained and the uteri removed, weighed and deep-frozen in liquid nitrogen.

In series [10] the test system is ovariectomized Sprague-Dawley rats. Kind of series: One-time i.v. administration of tectorigenin: LH levels in the blood. The following applies: single i.v. 7 mg tectorigenin. Here is the method: as §1
(§2) Following a single administration of tectorigenin, the time development of influence on the LH levels in the blood and the estradiol-type immunoreactivity were determined. The concentration of tectorigenin in the blood of the animals, determined with the aid of E2-RIA, after 20 min corresponds to about 100 pg equivalent estradiol.
(§3) Execution: OVX rats had catheters placed in the vena jugularis externa under ether anesthesia 24 hours before the beginning of the experiment, in accordance with the method of Harms and Ojeda (Harms P G; Ojeda S R: A rapid and simple procedure for chronic cannulation of the rat jugular vein. J. Appl. Physiol. (1974) 36: 391-392). The tube end was positioned in a skin pocket in the neck. In order not to have to touch the animals for obtaining the blood samples, the catheter was prolonged with the aid of a silicone tube. Catheter and tube were rinsed with Ringer solution containing 50 IU heparin/ml.
Blood samples of 100 μl each were drawn from the animals at 10-min intervals, and the withdrawn volume replaced with Ringer/heparin solution. After the 6th sample, 1.0 ml of the respective test solution was applied intravenously. As test solutions there were used: 2% cremophor (=vehicle solution), tectorigenin 7 mg/ml vehicle, 17-β-estradiol 10 μg/ml vehicle. Blood was taken at ten-minute intervals through additional 140 min.
The blood samples thus obtained were filled into a 0.5 ml Eppendorf reaction vessel containing 10 μl heparin-Losung (5000 IU/ml, Liquemin), centrifuged for 10 min at 10 000*g, and the plasma stored at −20° C. until performance of the radioimmunoassays.
(§4) The RIAs for LH and Prolaktin are based on antisera, reference and iodisation preparations from NIH (Bethesda, Md., USA). The concentrations of estradiol and of the cross-reactive isoflavones were measured with the aid of an RIA from DPC, Bad Nauheim.

Series [11] can be described thus: One-time i.v. administration of tectorigenin: estradiol-type immunoreactivity in blood (E2-RIA). The note with it: after 20 min; single i.v. 7 mg tectorigenin; ovx rats. Here is the method:
as §1, §2
as §3, with “heparin/ml. […]” for “heparin/ml.”
as §4

As for `C[C@]12CC[C@@H]3c4ccc(O)cc4CC[C@H]3[C@@H]1CC[C@@H]2O` [E2, 17-β-estradiol], the “gene expression of VEGF in uterine mRNA extract” value in [1] is 149 % of the control value. Besides, in series [2], the “IGF1 mRNA expression in femur head” value is recorded as “significantly inhibited”, the “TGFβ mRNA expression in femur head” value is recorded as “significantly inhibited”, the “collagen-1A1 mRNA expression in femur head” value is given as “significantly inhibited” and the “constitutive CCO gene expression in femur head” value was “without having an influence”. Also, in [2], the “osteocalcin mRNA expression in femur head” value was “significantly inhibited”. Further, the “expression of the mRNA for the estrogen receptor in the preoptic region of the hypothalamus” value in [3] is listed as “stimulate”. In series [4], the “expression of the mRNA for osteocalcin in bone tissue” value is reported as “reduces, in analogy with estradiol” and the “expression of the mRNA for the bone-specific collagen 1 in bone tissue” value is “reduces, in analogy with estradiol”. The “LH concentrations in the blood, mean values” in series [5] (62.5 mg Cimicifuga racemosa/rat or 8 pg estradiol/rat, n=8, RIA) was found to be 7.83 ng/mL. In addition, in [5] (62.5 mg Cimicifuga racemosa/rat or 8 pg estradiol/rat, n=8, ovx rats), the “Uterus weights (wet), mean values” was determined as 702.1 mg. In series [5] (ovx rats), the “LH levels compared with vehicle (in words)” value is recorded as “lowered significantly”, the “hornification of the vaginal epithelium tissue” value is listed as “quite contrary” and the “uterus weight compared with vehicle (in words)” value is “more than three times the weight”. Also, in [6] (vs cremophor), the average body weights result was “significantly lighter” and the uterus weights entry was “more than tripled”. The “serum LH levels” value in series [6] (vs cremophor controls) is “more marked”. The LH pulsatility entry in series [7] (62.5 mg extract or 10 μg E2, ovx rats) was “ceases”. Further, the “serum LH levels” value in [7] (62.5 mg extract or 10 μg E2, prior to and 2 hours after injection, vs previous values and cremophor controls) was “significant inhibitions”. In series [8], the “mRNA for IGF1 in the uterus” value is reported as “increases” and the “mRNA for complement factor C3 in the uterus” value was “increases”. In series [9], the “expression of the uterine C3 gene” value is reported as “clear increase”, the “expression of the uterine IGF1 gene” value is “clear increase” and the “expression of the uterine VEGF gene” value is reported as “clear increase”.
Take `COc1c(O)cc2occ(-c3ccc(O)cc3)c(=O)c2c1O` [tectorigenin]: in [10] (compared with 10 μg 17-β-estradiol), the “kinetics of the LH reduction up to 60 min following i.v. administration” value was “precisely correspond to the one of estradiol”. The “LH levels in the blood” value in series [10] (ovx rats) was “rapid LH reduction”. For the same molecule, the “course of LH after 60 min following i.v. administration” value in series [10] (sampling to 140 min) is “do not result in further reduction but slowly increases again”. The “concentration of tectorigenin in the blood, determined with E2-RIA” value in series [11] was “about 100 pg equivalent estradiol”.
